# Test results reported in patent US9120744B2, “Plasminogen activator inhibitor-1 inhibitors and methods of use thereof to modulate lipid metabolism” (THE REGENTS OF THE UNIVERSITY OF MICHIGAN, priority 2007, dated 2015).
# Where a name gives a salt, the structure may show the parent alone.
# Target: T1, recombinant active human PAI-1 (Homo sapiens (Human), UniProt P05121)
# Assay: pH dependence of PAI-1 inhibition, fluorogenic uPA (or tPA) assay
# Type: biochemical
# Conditions: pH 6.5 to 8.5
# T1 sequence (P05121 24-402): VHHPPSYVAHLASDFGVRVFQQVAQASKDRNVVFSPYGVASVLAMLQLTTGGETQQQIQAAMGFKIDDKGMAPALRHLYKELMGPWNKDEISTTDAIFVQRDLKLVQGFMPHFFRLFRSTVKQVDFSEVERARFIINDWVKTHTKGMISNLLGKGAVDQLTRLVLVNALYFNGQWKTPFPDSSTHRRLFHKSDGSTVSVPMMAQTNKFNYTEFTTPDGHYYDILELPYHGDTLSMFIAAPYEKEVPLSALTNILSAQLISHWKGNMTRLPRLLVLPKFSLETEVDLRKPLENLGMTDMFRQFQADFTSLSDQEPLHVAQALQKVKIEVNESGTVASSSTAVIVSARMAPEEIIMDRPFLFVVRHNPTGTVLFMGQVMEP
row,effect of pH on PAI-1 inhibition (in words),Compound
1,increased with increasing pH,COc1ccc(S(=O)(=O)NCCNS(=O)(=O)c2ccc(OC)c(OC)c2)cc1OC [CDE-029]

# Same assay, conditions: pH 7.5 (FIG. 8); additional experiments
row,PAI-1 inhibitory efficacy (in words),Compound
1,effective PAI-1 inhibitors,O=C(OC[C@H]1OC(OC(=O)c2cc(O)c(O)c(O)c2)[C@H](OC(=O)c2cc(O)c(O)c(O)c2)[C@@H](OC(=O)c2cc(O)c(O)c(O)c2)[C@@H]1OC(=O)c1cc(O)c(O)c(O)c1)c1cc(O)c(O)c(O)c1 (some centres unmarked) [CDE-001]
2,effective PAI-1 inhibitors,O=C(OC[C@H]1O[C@@H](OC(=O)c2cc(O)c(O)c(O)c2)[C@@H](OC(=O)c2cc(O)c(O)c(O)c2)[C@@H](OC(=O)c2cc(O)c(O)c(O)c2)[C@@H]1OC(=O)c1cc(O)c(O)c(O)c1)c1cc(O)c(O)c(O)c1 [CDE-002]
3,effective PAI-1 inhibitors,O=C(OC[C@H]1O[C@H](OC(=O)c2cc(O)c(O)c(O)c2)[C@H](OC(=O)c2cc(O)c(O)c(O)c2)[C@@H](OC(=O)c2cc(O)c(O)c(O)c2)[C@H]1OC(=O)c1cc(O)c(O)c(O)c1)c1cc(O)c(O)c(O)c1 [CDE-003]
4,effective PAI-1 inhibitors,O=C(OC[C@H]1O[C@@H](OC(=O)c2cc(O)c(O)c(O)c2)[C@H](OC(=O)c2cc(O)c(O)c(O)c2)[C@@H](OC(=O)c2cc(O)c(O)c(O)c2)[C@H]1OC(=O)c1cc(O)c(O)c(O)c1)c1cc(O)c(O)c(O)c1 [CDE-004]
5,not inhibitory,O=C(OC[C@H]1O[C@@H](OC(=O)c2cc(OCc3ccccc3)c(OCc3ccccc3)c(OCc3ccccc3)c2)[C@H](OC(=O)c2cc(OCc3ccccc3)c(OCc3ccccc3)c(OCc3ccccc3)c2)[C@@H](OC(=O)c2cc(OCc3ccccc3)c(OCc3ccccc3)c(OCc3ccccc3)c2)[C@H]1OC(=O)c1cc(OCc2ccccc2)c(OCc2ccccc2)c(OCc2ccccc2)c1)c1cc(OCc2ccccc2)c(OCc2ccccc2)c(OCc2ccccc2)c1 [CDE-006]
6,not inhibitory,O=C(OC[C@H]1O[C@H](OC(=O)c2cc(OCc3ccccc3)c(OCc3ccccc3)c(OCc3ccccc3)c2)[C@H](OC(=O)c2cc(OCc3ccccc3)c(OCc3ccccc3)c(OCc3ccccc3)c2)[C@@H](OC(=O)c2cc(OCc3ccccc3)c(OCc3ccccc3)c(OCc3ccccc3)c2)[C@H]1OC(=O)c1cc(OCc2ccccc2)c(OCc2ccccc2)c(OCc2ccccc2)c1)c1cc(OCc2ccccc2)c(OCc2ccccc2)c(OCc2ccccc2)c1 [CDE-007]
7,effective inhibitors of PAI-1,COc1ccc(S(=O)(=O)NCCNS(=O)(=O)c2ccc(OC)c(OC)c2)cc1OC [CDE-029]

# Target: T1, recombinant active human PAI-1
# Assay: β-trypsin screening assay for PAI-1 inhibitors;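 note: fluorogenic readout with PAI-1 and β-trypsin at 10:1 molar ratio, untreated PAI-1 wells set as 100% PAI-1 activity and β-trypsin alone as 0%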
# Type: biochemical
# Conditions: not given
row,Compound,screening hit: restoration of β-trypsin activity
1,CN1[C@@H]2CC[C@H]1C[C@@H](OC(=O)c1c[nH]c3ccccc13)C2.Cl [TROPISETRON HCl],demonstrate PAI-1 inhibitor activity

# Same assay, conditions: 10 μM compound; hit = more than 3 standard deviations above control
row,screening hit: restoration of β-trypsin activity,Compound
1,demonstrate PAI-1 inhibitor activity,"COc1cc(-c2coc3cc(OCc4ccccc4)c(OC)c(O)c3c2=O)cc(OCc2ccccc2)c1OC [IRIGENIN, DIBENZYL ETHER]"
2,demonstrate PAI-1 inhibitor activity,O=c1c(-c2cc(O)c(O)c(O)c2)coc2cc(O)c(O)c(O)c12 [IRIGENOL]
3,demonstrate PAI-1 inhibitor activity,CC(=O)Oc1cc(-c2coc3cc(OC(C)=O)c(OC(C)=O)c(OC(C)=O)c3c2=O)cc(OC(C)=O)c1OC(C)=O [IRIGINOL HEXAACEATATE]
4,demonstrate PAI-1 inhibitor activity,COc1ccc(-c2coc3cc(O)ccc3c2=O)c(O)c1O [KOPARIN]
5,demonstrate PAI-1 inhibitor activity,CCOC(=O)C1=C(C)N=C(C)/C(=C(/O)OCC)C1c1ccccc1/C=C/C(=O)OC(C)(C)C (centres unmarked) [LACIDIPINE]
6,demonstrate PAI-1 inhibitor activity,C=C[C@@](C)(O)CC[C@H]1C(=C)C[C@H](O)[C@H]2C(C)(C)CCC[C@]12C [LARIXOL]
7,demonstrate PAI-1 inhibitor activity,CC(C)(C)NC[C@H](O)c1ccc(O)c(CO)c1 [LEVALBUTEROL HYDROCHLORIDE]
8,demonstrate PAI-1 inhibitor activity,CCOC(=O)N1CCC(=C2c3ccc(Cl)cc3CCc3cccnc32)CC1 [LORATADINE]
9,demonstrate PAI-1 inhibitor activity,CC(C(=O)[O-])c1ccc(CC2CCCC2=O)cc1.[Na+] (centres unmarked) [LOXOPROFEN SODIUM]
10,demonstrate PAI-1 inhibitor activity,CC12CC3CC(C)(C1)CC(N)(C3)C2 [MEMANTINE HYDROCHLORIDE]
11,demonstrate PAI-1 inhibitor activity,C=C1c2cccc(O)c2C(=O)C2=C(O)[C@]3(O)C(=O)C(C(N)=O)=C(O)[C@@H](N(C)C)[C@@H]3[C@@H](O)[C@H]12 [METHACYCLINE HYDROCHLORIDE]
12,demonstrate PAI-1 inhibitor activity,Cc1cc(O)c(C=O)c2c1C(=O)Oc1c(C)c(O)c3c(c1O2)C(O)OC3=O (centres unmarked) [NORSTICTIC ACID]
13,demonstrate PAI-1 inhibitor activity,CCc1oc2ccccc2c1C(=O)c1cc(Br)c(O)c(Br)c1 [NSC 85433]
14,demonstrate PAI-1 inhibitor activity,O=c1c(O)c(-c2ccc(O)c(O)c2)oc2cc(O)ccc12 [NSC 407010]
15,demonstrate PAI-1 inhibitor activity,NC(=O)N1c2ccccc2CC(=O)c2ccccc21 [OXCARBAZEPINE]
16,demonstrate PAI-1 inhibitor activity,N=C1C=CC(=C(c2ccc(N)cc2)c2ccc(N)cc2)C=C1 [PARAROSANILINE PAMOATE]
17,demonstrate PAI-1 inhibitor activity,C[C@H]1COc2c(C3(N)CC3)c(F)cc3c(=O)c(C(=O)O)cn1c23 [PAZUFLOXACIN]
18,demonstrate PAI-1 inhibitor activity,CN1CCN(CC(=O)N2c3ccccc3C(=O)Nc3cccnc32)CC1 [PIRENZEPINE HYDROCHLORIDE]
19,demonstrate PAI-1 inhibitor activity,CCN(CC)CCNC(=O)c1ccc(N)cc1 [PROCAINAMIDE HYDROCHLORIDE]
20,demonstrate PAI-1 inhibitor activity,O=c1c(O)cccc2cc(O)c(O)c(O)c12 [PURPUROGALLIN]
21,demonstrate PAI-1 inhibitor activity,CCN(CC)CCCC(C)Nc1c2ccc(Cl)cc2nc2ccc(OC)cc12 (centres unmarked) [QUINACRINE HYDROCHLORIDE]
22,demonstrate PAI-1 inhibitor activity,"O=C1c2ccc(O)c(O)c2C(=O)c2c(O)ccc(O)c21 [QUINALIZARIN, quinalizarin]"
23,demonstrate PAI-1 inhibitor activity,O=C(O)c1cc(O)c2c(c1)[C@H]([C@H]1c3cc(C(=O)O)cc(O)c3C(=O)c3c(O[C@@H]4O[C@H](CO)[C@@H](O)[C@H](O)[C@H]4O)cccc31)c1cccc(O[C@@H]3O[C@H](CO)[C@@H](O)[C@H](O)[C@H]3O)c1C2=O [SENNOSIDE A]
24,demonstrate PAI-1 inhibitor activity,O=C(O[C@H]1Cc2c(O)cc(O)cc2O[C@H]1c1cc(O)c(=O)c2c(O)c(O)cc([C@@H]3Oc4cc(O)cc(O)c4C[C@@H]3O)c2c1)c1cc(O)c(O)c(O)c1 [THEAFLAVIN MONOGALLATES]
25,demonstrate PAI-1 inhibitor activity,O=c1c(O)cc([C@H]2Oc3cc(O)cc(O)c3C[C@H]2O)cc2c([C@H]3Oc4cc(O)cc(O)c4C[C@H]3O)cc(O)c(O)c12 [THEAFLAVIN]
26,demonstrate PAI-1 inhibitor activity,Cc1onc(-c2ccccc2)c1-c1ccc(S(N)(=O)=O)cc1 [VALDECOXIB]
27,demonstrate PAI-1 inhibitor activity,COc1cc(C(=O)NS(=O)(=O)c2ccccc2C)ccc1Cc1cn(C)c2ccc(NC(=O)OC3CCCC3)cc12 [ZAFIRLUKAST]
28,demonstrate PAI-1 inhibitor activity,SAPPANONE A DIMETHYL ETHER

row,Compound,screening hit: restoration of β-trypsin activity
1,NC[C@H](O)c1ccc(O)c(O)c1 [NOREPINEPHRINE],demonstrate PAI-1 inhibitor activity
2,CN(C)C(=S)SSC(=S)N(C)C [NSC 1771],demonstrate PAI-1 inhibitor activity
3,Clc1ccc(CONC(Cn2ccnc2)c2ccc(Cl)cc2Cl)c(Cl)c1.O=[N+]([O-])O (centres unmarked) [OXICONAZOLE NITRATE],demonstrate PAI-1 inhibitor activity
4,NCCc1cc(O)c(O)cc1O [OXIDOPAMINE HYDROCHLORIDE],demonstrate PAI-1 inhibitor activity
5,CCOP(=S)(OCC)SCSCC [PHORATE],demonstrate PAI-1 inhibitor activity
6,C=C[C@H]1CN2CC[C@H]1C[C@H]2[C@H](OC(=O)OCC)c1ccnc2ccc(OC)cc12 [QUININE ETHYL CARBONATE],demonstrate PAI-1 inhibitor activity
7,COc1ccc2[nH]cc(C3=CCNCC3)c2c1 [RU 24969],demonstrate PAI-1 inhibitor activity
8,CC12CCC3C(CCC4(O)CC(O)CCC34/C=N/NC(N)=O)C1(O)CCC2C1=CC(=O)OC1 (centres unmarked) [STROPHANTHIDIN SEMICARBAZIDE],demonstrate PAI-1 inhibitor activity
9,O=c1c(O)cccc2c([C@H]3Oc4cc(O)cc(O)c4C[C@H]3O)cc(O)c(O)c12 [THEAFLAVANIN],demonstrate PAI-1 inhibitor activity
10,CC(CCC(=O)O)[C@H]1CCC2C3CCC4CCCC[C@]4(C)C3CC[C@@]21C (some centres unmarked) [URSOCHOLANIC ACID],demonstrate PAI-1 inhibitor activity
11,CC[C@@]1(O)C[C@@H]2CN(CCc3c([nH]c4ccccc34)[C@](C(=O)OC)(c3cc4c(cc3OC)N(C)[C@@H]3[C@]45CCN4CC=C[C@@](CC)(C(O)[C@]3(O)C(N)=O)[C@H]45)C2)C1.O=S(=O)(O)O (some centres unmarked) [VINDESINE SULFATE],demonstrate PAI-1 inhibitor activity
12,Cc1cc(C(C)(C)C)cc(C)c1CC1=NCCN1 [XYLOMETAZOLINE HYDROCHLORIDE],demonstrate PAI-1 inhibitor activity
13,CHLORAMPHENICOL HEMISUCCINATE,demonstrate PAI-1 inhibitor activity
